The values that follow are results of earlier work, collected in article PMC3657752 (Inflammatory bowel diseases, 2011).

Molecules are shown by their SMILES.

Data set [1] deals with Experimental Autoimmune Encephalomyelitis (EAE) model. The settings on record: promoting permissive remyelination of spinal cord.
Data set [2] relates to colorectal, colon, and breast cancer models.

On to `CCN(CC)CCNc1ccc2ncn3c4ccc(O)cc4c(=O)c1c23` [Symadex], for which, in data set [1], the “activity in EAE model” value is “active”. Besides, the “activity in models of colorectal, colon, and breast cancer” value in data set [2] was “demonstrated activity”.
